Measured values published in PMC12410356 (International Journal for Parasitology: Drugs and Drug …, 2025).

system: E. multilocularis metacestode vesicles; experiment: Phosphoglucose isomerase (PGI) release assay (damage-marker release) on metacestode vesicles; assay type: cell-based, Echinococcus multilocularis; settings: overview screen, 10 μM, singlets, 5 days, relative to 0.1 % Triton X-100, DMSO subtracted

**Q.** `C[Si]1(C)CCN(Cc2cc(-c3ccc(Cl)cc3)n(-c3ccc(Cl)cc3)n2)CC1` [MMV1580843] was tested. Which “PGI d5 (relative PGI release)” value did it give?
**A.** -0.6444%

**Q.** Which “PGI d5 (relative PGI release)” value does the source give for `CCNC(=O)Nc1cc2c(-c3ccnc(C)c3)ccc(CNC(=O)OC)c2cn1` [MMV1634390] here?
**A.** 1.116%

**Q.** With `FC(F)(F)Oc1ccc(Nc2ccc3cccc(Cl)c3n2)cc1` [MMV1581032] as the compound, how does the “PGI d5 (relative PGI release)” value read?
**A.** -0.01272%

**Q.** `Nc1nnnn1CCOc1c2[nH]c3ccc(Cl)cc3c2cc2c1[nH]c1ccc(Cl)cc12` [MMV1633966] was tested. Which “PGI d5 (relative PGI release)” value did it give?
**A.** 3.53%

**Q.** With `Nc1nc(=O)[nH]cc1F` [MMV004508] as the compound, how does the “PGI d5 (relative PGI release)” value read?
**A.** -1.885%

**Q.** For `COC(=O)Nc1nc2c(C)cccc2[nH]1` [MMV1782387], which “PGI d5 (relative PGI release)” value is on record?
**A.** -0.1734%

**Q.** With `Cc1cc(-c2ccccc2)c(C(=O)C(=O)Nc2ccc(N3CCN(c4ncc(F)cn4)CC3)cc2)n1C` [MMV1782354] as the compound, how does the “PGI d5 (relative PGI release)” value read?
**A.** 1.821%

**Q.** With `CC(C)Cn1c(=O)n(C)c(=O)c2c(-c3cncn3C)n(Cc3cccc4ccccc34)nc21` [MMV1581559] as the compound, how does the “PGI d5 (relative PGI release)” value read?
**A.** -0.3605%

**Q.** `O=C1C=C(c2ccccc2)S(=O)(=O)c2ccccc21` [MMV1006203] was tested. Which “PGI d5 (relative PGI release)” value did it give?
**A.** 0.2239%

**Q.** How did the “PGI d5 (relative PGI release)” value turn out when `COc1cc(C(C(=O)NC2CCCCC2)N(C(=O)Cc2c[nH]c3ccccc23)c2ccc(C(C)C)cc2)cc(OC)c1OC` (stereo not drawn) [MMV1593544] was run?
**A.** 0.03783%

**Q.** `Nc1nnc(-c2ccc(Cl)cc2)s1` [MMV046261] was tested. Which “PGI d5 (relative PGI release)” value did it give?
**A.** 0.5147%

**Q.** With `Oc1c(C(Nc2ccccn2)c2ccccc2)ccc2cccnc12` (stereo not drawn) [MMV565773] as the compound, how does the “PGI d5 (relative PGI release)” value read?
**A.** -0.6323%

**Q.** With `CCOC(=O)/C=C/[C@H](C[C@@H]1CCNC1=O)NC(=O)[C@@H](CC(=O)[C@@H](NC(=O)c1cc(C)on1)C(C)C)Cc1ccc(F)cc1` [MMV1580491] as the compound, how does the “PGI d5 (relative PGI release)” value read?
**A.** 0.4485%

**Q.** For `Cc1cc(Nc2ccc(F)cc2)nc(SCc2nc3ccccc3[nH]2)n1` [MMV1582498], which “PGI d5 (relative PGI release)” value is on record?
**A.** 0.3642%

same assay, conditions: overview screen, 10 μM, singlets, 12 days, relative to 0.1 % Triton X-100, DMSO subtracted

**Q.** With `C[Si]1(C)CCN(Cc2cc(-c3ccc(Cl)cc3)n(-c3ccc(Cl)cc3)n2)CC1` [MMV1580843] as the compound, how does the “PGI d12 (relative PGI release)” value read?
**A.** -1.571%

**Q.** With `CCNC(=O)Nc1cc2c(-c3ccnc(C)c3)ccc(CNC(=O)OC)c2cn1` [MMV1634390] as the compound, how does the “PGI d12 (relative PGI release)” value read?
**A.** -26.1278%

**Q.** Which “PGI d12 (relative PGI release)” value does the source give for `FC(F)(F)Oc1ccc(Nc2ccc3cccc(Cl)c3n2)cc1` [MMV1581032] here?
**A.** 18.8065%

**Q.** With `Nc1nnnn1CCOc1c2[nH]c3ccc(Cl)cc3c2cc2c1[nH]c1ccc(Cl)cc12` [MMV1633966] as the compound, how does the “PGI d12 (relative PGI release)” value read?
**A.** 16.3673%

**Q.** For `Nc1nc(=O)[nH]cc1F` [MMV004508], which “PGI d12 (relative PGI release)” value is on record?
**A.** -20.764%

**Q.** For `COC(=O)Nc1nc2c(C)cccc2[nH]1` [MMV1782387], which “PGI d12 (relative PGI release)” value is on record?
**A.** -20.8652%

**Q.** With `Cc1cc(-c2ccccc2)c(C(=O)C(=O)Nc2ccc(N3CCN(c4ncc(F)cn4)CC3)cc2)n1C` [MMV1782354] as the compound, how does the “PGI d12 (relative PGI release)” value read?
**A.** -11.1929%

**Q.** `CC(C)Cn1c(=O)n(C)c(=O)c2c(-c3cncn3C)n(Cc3cccc4ccccc34)nc21` [MMV1581559] was tested. Which “PGI d12 (relative PGI release)” value did it give?
**A.** 37.1265%

**Q.** How did the “PGI d12 (relative PGI release)” value turn out when `O=C1C=C(c2ccccc2)S(=O)(=O)c2ccccc21` [MMV1006203] was run?
**A.** 0.7153%

**Q.** `COc1cc(C(C(=O)NC2CCCCC2)N(C(=O)Cc2c[nH]c3ccccc23)c2ccc(C(C)C)cc2)cc(OC)c1OC` (stereo not drawn) [MMV1593544] was tested. Which “PGI d12 (relative PGI release)” value did it give?
**A.** 0.3627%

**Q.** How did the “PGI d12 (relative PGI release)” value turn out when `Nc1nnc(-c2ccc(Cl)cc2)s1` [MMV046261] was run?
**A.** 3.499%

**Q.** With `Oc1c(C(Nc2ccccn2)c2ccccc2)ccc2cccnc12` (stereo not drawn) [MMV565773] as the compound, how does the “PGI d12 (relative PGI release)” value read?
**A.** -6.242%

**Q.** How did the “PGI d12 (relative PGI release)” value turn out when `CCOC(=O)/C=C/[C@H](C[C@@H]1CCNC1=O)NC(=O)[C@@H](CC(=O)[C@@H](NC(=O)c1cc(C)on1)C(C)C)Cc1ccc(F)cc1` [MMV1580491] was run?
**A.** -17.2617%

**Q.** How did the “PGI d12 (relative PGI release)” value turn out when `Cc1cc(Nc2ccc(F)cc2)nc(SCc2nc3ccccc3[nH]2)n1` [MMV1582498] was run?
**A.** 1.096%

system: E. multilocularis metacestode vesicles; experiment: Metacestode vesicle viability assay (ATP, CellTiter-Glo); assay type: cell-based, Echinococcus multilocularis; settings: 10 µM
Protocol: Viability was assessed after 12 days using the same metacestode vesicles as for the PGI release assay. Triton X-100 was added to each well to a final concentration of 0.1 %. Subsequently the metacestode vesicles were broken mechanically and 50 μL of the supernatant was mixed with 50 μL of CellTiter-Glo® buffer (Promega, Dübendorf, Switzerland). Measurements were performed on a HIDEX Sense microplate reader.

**Q.** How did the “Viability d12 (relative viability)” value turn out when `Nc1nc(=O)[nH]cc1F` [MMV004508] was run?
**A.** 219.514%

same assay, conditions: overview screen, 10 μM, singlets, 12 days, relative to DMSO control

**Q.** `C[Si]1(C)CCN(Cc2cc(-c3ccc(Cl)cc3)n(-c3ccc(Cl)cc3)n2)CC1` [MMV1580843] was tested. Which “Viability d12 (relative viability)” value did it give?
**A.** 93.6293%

**Q.** Which “Viability d12 (relative viability)” value does the source give for `CCNC(=O)Nc1cc2c(-c3ccnc(C)c3)ccc(CNC(=O)OC)c2cn1` [MMV1634390] here?
**A.** 29.4745%

**Q.** `FC(F)(F)Oc1ccc(Nc2ccc3cccc(Cl)c3n2)cc1` [MMV1581032] was tested. Which “Viability d12 (relative viability)” value did it give?
**A.** 85.6723%

**Q.** With `Nc1nnnn1CCOc1c2[nH]c3ccc(Cl)cc3c2cc2c1[nH]c1ccc(Cl)cc12` [MMV1633966] as the compound, how does the “Viability d12 (relative viability)” value read?
**A.** 104.455%

**Q.** `COC(=O)Nc1nc2c(C)cccc2[nH]1` [MMV1782387] was tested. Which “Viability d12 (relative viability)” value did it give?
**A.** 91.1788%

**Q.** How did the “Viability d12 (relative viability)” value turn out when `Cc1cc(-c2ccccc2)c(C(=O)C(=O)Nc2ccc(N3CCN(c4ncc(F)cn4)CC3)cc2)n1C` [MMV1782354] was run?
**A.** 36.0707%

**Q.** For `CC(C)Cn1c(=O)n(C)c(=O)c2c(-c3cncn3C)n(Cc3cccc4ccccc34)nc21` [MMV1581559], which “Viability d12 (relative viability)” value is on record?
**A.** 31.7083%

**Q.** How did the “Viability d12 (relative viability)” value turn out when `O=C1C=C(c2ccccc2)S(=O)(=O)c2ccccc21` [MMV1006203] was run?
**A.** 120.957%

**Q.** Which “Viability d12 (relative viability)” value does the source give for `COc1cc(C(C(=O)NC2CCCCC2)N(C(=O)Cc2c[nH]c3ccccc23)c2ccc(C(C)C)cc2)cc(OC)c1OC` (stereo not drawn) [MMV1593544] here?
**A.** 100.386%

**Q.** How did the “Viability d12 (relative viability)” value turn out when `Nc1nnc(-c2ccc(Cl)cc2)s1` [MMV046261] was run?
**A.** 11.5226%

**Q.** How did the “Viability d12 (relative viability)” value turn out when `Oc1c(C(Nc2ccccn2)c2ccccc2)ccc2cccnc12` (stereo not drawn) [MMV565773] was run?
**A.** 113.31%

**Q.** Which “Viability d12 (relative viability)” value does the source give for `CCOC(=O)/C=C/[C@H](C[C@@H]1CCNC1=O)NC(=O)[C@@H](CC(=O)[C@@H](NC(=O)c1cc(C)on1)C(C)C)Cc1ccc(F)cc1` [MMV1580491] here?
**A.** 181.789%

**Q.** How did the “Viability d12 (relative viability)” value turn out when `Cc1cc(Nc2ccc(F)cc2)nc(SCc2nc3ccccc3[nH]2)n1` [MMV1582498] was run?
**A.** 46.2574%
